Measured values from patent publication US4568691A, “Anti-inflammatory esters of 4-(1-hydroxy-2-[(acylamino)-alkylamino]-ethyl)-phenol derivatives, compositions, and method of use therefor” (Imperial Chemical Industries, PLC, priority 1981, dated 1986).

How the values were obtained:
[1] = system: croton oil induced inflammation on the mouse ear; assay: croton oil induced inflammation test on the mouse ear, single topical application; format: in vivo, albino mouse (Alderley Park Strain); settings: 4 hours after croton oil
Procedure: A 4% v/v solution of croton oil in (acetone) was prepared. A portion (10 μl.) of this solution was applied to the right ear of an albino mouse (Alderley Park Strain, specific pathogen free). This was followed by immediate application of a portion (10 μl.) of a solution of test compound in ethanol to the same ear of the mouse. This procedure was repeated for a total of ten mice.
After 4 hours the mice were sacrificed and both ears from each mouse were removed and weighed. The increase in weight of the right over the left ear for each mouse was then determined and an average obtained for the group as a whole. […] The percentage inhibition of croton oil induced inflammation was then calculated for the test compound.

[2] = system: croton oil induced inflammation on the mouse ear; assay: effect of repeated topical application on anti-inflammatory properties in the croton oil induced inflammation test; format: in vivo, albino mouse (Alderley Park Strain); settings: for Percentage reduction in croton oil induced inflammation, Four Applns: four applications (3, 2, 1 day before and immediately after croton oil), rate approximately 4 × IC50
Source text: (b) An indication of the effect of repeated topical application of a test compound on its anti-inflammatory properties was obtained as follows:
first application received 3 days before croton oil;
second application received 2 days before croton oil;
third application received 1 day before croton oil; and
fourth application received immediately after croton oil.

[3] = system: croton oil induced inflammation on the mouse ear; assay: as above; format: in vivo, albino mouse (Alderley Park Strain); settings: single application immediately after croton oil; rate approximately 4 × IC50
[4] = system: croton oil induced inflammation on the mouse ear; settings: known from earlier patent publications (UK 1591618); cited from earlier work

SMILES | IC50 (amount of test compound per ear which inhibited the inflammation by 50%) [1] [μg/ear] | Percentage reduction in croton oil induced inflammation, Four Applns [2] [%] | Percentage reduction in croton oil induced inflammation, Single Appln [3] [%] | reduction in topical anti-inflammatory properties after repeated topical applications ([2]; two or more / several topical applications spaced over several days) | topical anti-inflammatory properties [4]
CC(C)(CNC(=O)c1cc(Cl)ccn1)NCC(O)c1ccc(OC(=O)C(C)(C)C)c(OC(=O)C(C)(C)C)c1 (centres unmarked) [4-chloro-2-pyridyl] | 7 | 33 | 68 | – | –
CC(C)(CNC(=O)c1cccs1)NCC(O)c1ccc(OC(=O)C(C)(C)C)c(OC(=O)C(C)(C)C)c1 (centres unmarked) [Example 2-thienyl] | 7 | 33 | 71 | – | –
CC(C)(CNC(=O)c1ccoc1)NCC(O)c1ccc(OC(=O)C(C)(C)C)c(OC(=O)C(C)(C)C)c1 (centres unmarked) [Example 3-furyl] | 2 | 45 | 65 | – | –
CC(C)(CNC(=O)c1ccco1)NCC(O)c1ccc(OC(=O)C(C)(C)C)c(OC(=O)C(C)(C)C)c1 (centres unmarked) [Example 7, 4-(1-hydroxy-2-[2-(2-furylcarboxyamido)-1,1-dimethyl-ethylamino]ethyl)catechol dipivaloyl ester] | 13 | 64 | 60 | – | –
CC(C)(CNC(=O)c1cc2ccccc2o1)NCC(O)c1ccc(OC(=O)C(C)(C)C)c(OC(=O)C(C)(C)C)c1 (centres unmarked) [Example 8, 4-(1-hydroxy-2-[1,1-dimethyl-2-(2-benzo[b]furyl-carboxamido)ethylamino]ethyl)catechol dipivaloyl ester] | 11 | 59 | 61 | – | –

The next lines start with results.

IC50 (amount of test compound per ear which inhibited the inflammation by 50%) [1] [μg/ear] | SMILES | Percentage reduction in croton oil induced inflammation, Four Applns [2] [%] | Percentage reduction in croton oil induced inflammation, Single Appln [3] [%] | reduction in topical anti-inflammatory properties after repeated topical applications ([2]; two or more / several topical applications spaced over several days) | topical anti-inflammatory properties [4]
23 | CC(C)(CNC(=O)c1cc2ccccc2s1)NCC(O)c1ccc(OC(=O)C(C)(C)C)c(OC(=O)C(C)(C)C)c1 (centres unmarked) [Example 9, 4-(1-hydroxy-2-[1,1-dimethyl-2-(2-benzo[b]thienylcarboxamido)ethylamino]ethyl)catechol dipivaloyl ester] | 65 | 64 | – | –
2.5 | CC(C)(CNCC(O)c1ccc(OC(=O)C(C)(C)C)c(OC(=O)C(C)(C)C)c1)NC(=O)COc1ccccc1 (centres unmarked) [phenoxymethyl, 4-(1-hydroxy-2-[2-methyl-2-(phenoxyacetamido)-propylamino]ethyl)catechol dipivaloyl ester] | 23 | 60 | significant reduction in topical anti-inflammatory properties | potent topical anti-inflammatory properties
